Laboratory results published in patent publication US11981658B2, “Substituted aminopyridine compounds as EGFR inhibitors” (YUHAN CORPORATION, priority 2021, dated 2024).
Read-outs that look alike come from different tables or passages of the source.

Key:
EGFR L858R/T790M/C797S = EGFR L858R/T790M/C797S (Homo sapiens, UniProt P00533, C797S/L858R/T790M); assay: Biochemical EGFR kinase inhibition assay (Lance Ultra TR-FRET), triple mutant L858R/T790M/C797S
In short: (§1)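 In this biochemical assay, phosphorylation after a one-hour room-temperature reaction was detected with europium-labelled anti-phosphopeptide antibody at 2 nM final concentration.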

EGFR Del19/C797S = EGFR Del19/C797S (Homo sapiens, UniProt P00533, C797S/DEL746-750); assay: Biochemical EGFR kinase inhibition assay (Lance Ultra TR-FRET), double mutant del19/C797S
EGFR Del19/C797S, sequence (P00533 with tags, fused parts or gaps DEL746-750/C797S): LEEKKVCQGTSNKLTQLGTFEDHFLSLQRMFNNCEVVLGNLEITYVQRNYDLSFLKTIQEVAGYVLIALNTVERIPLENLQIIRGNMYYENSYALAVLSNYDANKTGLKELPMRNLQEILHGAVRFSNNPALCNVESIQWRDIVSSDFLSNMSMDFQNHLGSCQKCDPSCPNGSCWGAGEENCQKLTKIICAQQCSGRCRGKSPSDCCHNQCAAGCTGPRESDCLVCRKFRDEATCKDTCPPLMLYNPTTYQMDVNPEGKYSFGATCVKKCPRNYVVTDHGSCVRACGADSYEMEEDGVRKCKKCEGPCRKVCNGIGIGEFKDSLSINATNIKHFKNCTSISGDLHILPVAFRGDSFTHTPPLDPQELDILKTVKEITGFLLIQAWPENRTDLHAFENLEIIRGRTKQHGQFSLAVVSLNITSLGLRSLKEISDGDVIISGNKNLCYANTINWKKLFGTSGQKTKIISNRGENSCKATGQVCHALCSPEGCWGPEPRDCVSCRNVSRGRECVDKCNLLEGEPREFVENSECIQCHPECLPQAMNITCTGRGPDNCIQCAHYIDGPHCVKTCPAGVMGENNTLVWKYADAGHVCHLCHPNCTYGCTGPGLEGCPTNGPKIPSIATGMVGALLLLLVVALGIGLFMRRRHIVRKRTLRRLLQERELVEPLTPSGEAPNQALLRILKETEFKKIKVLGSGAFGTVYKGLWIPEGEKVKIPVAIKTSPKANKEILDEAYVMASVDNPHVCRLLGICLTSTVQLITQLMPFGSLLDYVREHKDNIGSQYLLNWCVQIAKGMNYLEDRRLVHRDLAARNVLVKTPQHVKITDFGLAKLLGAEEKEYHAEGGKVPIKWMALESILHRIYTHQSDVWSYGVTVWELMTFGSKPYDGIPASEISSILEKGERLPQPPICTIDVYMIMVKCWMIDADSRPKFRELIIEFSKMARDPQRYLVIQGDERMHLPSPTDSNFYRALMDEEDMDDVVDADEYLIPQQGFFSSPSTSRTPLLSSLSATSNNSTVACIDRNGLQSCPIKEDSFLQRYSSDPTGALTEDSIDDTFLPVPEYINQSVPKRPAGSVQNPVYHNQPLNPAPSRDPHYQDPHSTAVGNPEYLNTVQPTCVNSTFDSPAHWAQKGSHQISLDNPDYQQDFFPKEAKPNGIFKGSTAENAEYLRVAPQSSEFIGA
In short: as §1

EGFR wildtype (WT) = EGFR wildtype (WT) (Homo sapiens, UniProt P00533); assay: Biochemical EGFR kinase inhibition assay (Lance Ultra TR-FRET), wildtype
EGFR wildtype (WT), sequence (P00533 25-1210): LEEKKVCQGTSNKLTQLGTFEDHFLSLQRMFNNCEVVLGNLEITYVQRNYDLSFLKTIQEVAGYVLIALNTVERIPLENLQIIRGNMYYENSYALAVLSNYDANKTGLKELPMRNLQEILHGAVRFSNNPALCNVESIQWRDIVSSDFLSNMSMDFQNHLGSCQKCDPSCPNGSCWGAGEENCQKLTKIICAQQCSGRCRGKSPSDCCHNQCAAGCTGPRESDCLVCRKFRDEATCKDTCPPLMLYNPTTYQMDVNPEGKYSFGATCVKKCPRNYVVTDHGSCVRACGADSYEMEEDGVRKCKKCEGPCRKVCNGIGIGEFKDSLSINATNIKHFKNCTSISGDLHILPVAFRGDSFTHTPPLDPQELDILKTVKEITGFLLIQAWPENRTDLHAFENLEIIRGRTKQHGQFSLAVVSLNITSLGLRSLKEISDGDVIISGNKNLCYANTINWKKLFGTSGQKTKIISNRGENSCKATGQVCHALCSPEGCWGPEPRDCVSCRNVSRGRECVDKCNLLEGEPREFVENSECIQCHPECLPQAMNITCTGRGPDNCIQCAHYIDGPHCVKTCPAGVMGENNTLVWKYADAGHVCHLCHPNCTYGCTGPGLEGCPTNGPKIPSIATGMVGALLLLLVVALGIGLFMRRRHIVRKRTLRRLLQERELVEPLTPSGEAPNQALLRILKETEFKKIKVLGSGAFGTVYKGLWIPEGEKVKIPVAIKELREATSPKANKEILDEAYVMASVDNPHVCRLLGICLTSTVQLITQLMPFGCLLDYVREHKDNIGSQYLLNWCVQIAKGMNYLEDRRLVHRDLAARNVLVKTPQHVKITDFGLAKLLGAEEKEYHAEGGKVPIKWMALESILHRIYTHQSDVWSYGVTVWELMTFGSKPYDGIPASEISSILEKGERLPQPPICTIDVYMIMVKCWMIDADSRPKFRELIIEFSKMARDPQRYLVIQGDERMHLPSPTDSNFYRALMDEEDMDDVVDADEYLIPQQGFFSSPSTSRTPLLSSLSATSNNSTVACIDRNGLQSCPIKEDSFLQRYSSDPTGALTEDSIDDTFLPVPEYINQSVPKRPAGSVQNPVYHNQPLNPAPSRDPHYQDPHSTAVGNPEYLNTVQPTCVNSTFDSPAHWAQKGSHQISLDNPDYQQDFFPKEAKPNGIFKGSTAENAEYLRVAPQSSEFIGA
In short: as §1

EGFR Del19/T790M/C797S = EGFR Del19/T790M/C797S (Homo sapiens, UniProt P00533, C797S/DEL746-750/T790M); assay: Biochemical EGFR kinase inhibition assay (Lance Ultra TR-FRET), triple mutant del19/T790M/C797S
In short: as §1

EGFR L858R/C797S = EGFR L858R/C797S (Homo sapiens, UniProt P00533, C797S/L858R); assay: Biochemical EGFR kinase inhibition assay (Lance Ultra TR-FRET), double mutant L858R/C797S
EGFR L858R/C797S, sequence (P00533 25-1210 C797S/L858R): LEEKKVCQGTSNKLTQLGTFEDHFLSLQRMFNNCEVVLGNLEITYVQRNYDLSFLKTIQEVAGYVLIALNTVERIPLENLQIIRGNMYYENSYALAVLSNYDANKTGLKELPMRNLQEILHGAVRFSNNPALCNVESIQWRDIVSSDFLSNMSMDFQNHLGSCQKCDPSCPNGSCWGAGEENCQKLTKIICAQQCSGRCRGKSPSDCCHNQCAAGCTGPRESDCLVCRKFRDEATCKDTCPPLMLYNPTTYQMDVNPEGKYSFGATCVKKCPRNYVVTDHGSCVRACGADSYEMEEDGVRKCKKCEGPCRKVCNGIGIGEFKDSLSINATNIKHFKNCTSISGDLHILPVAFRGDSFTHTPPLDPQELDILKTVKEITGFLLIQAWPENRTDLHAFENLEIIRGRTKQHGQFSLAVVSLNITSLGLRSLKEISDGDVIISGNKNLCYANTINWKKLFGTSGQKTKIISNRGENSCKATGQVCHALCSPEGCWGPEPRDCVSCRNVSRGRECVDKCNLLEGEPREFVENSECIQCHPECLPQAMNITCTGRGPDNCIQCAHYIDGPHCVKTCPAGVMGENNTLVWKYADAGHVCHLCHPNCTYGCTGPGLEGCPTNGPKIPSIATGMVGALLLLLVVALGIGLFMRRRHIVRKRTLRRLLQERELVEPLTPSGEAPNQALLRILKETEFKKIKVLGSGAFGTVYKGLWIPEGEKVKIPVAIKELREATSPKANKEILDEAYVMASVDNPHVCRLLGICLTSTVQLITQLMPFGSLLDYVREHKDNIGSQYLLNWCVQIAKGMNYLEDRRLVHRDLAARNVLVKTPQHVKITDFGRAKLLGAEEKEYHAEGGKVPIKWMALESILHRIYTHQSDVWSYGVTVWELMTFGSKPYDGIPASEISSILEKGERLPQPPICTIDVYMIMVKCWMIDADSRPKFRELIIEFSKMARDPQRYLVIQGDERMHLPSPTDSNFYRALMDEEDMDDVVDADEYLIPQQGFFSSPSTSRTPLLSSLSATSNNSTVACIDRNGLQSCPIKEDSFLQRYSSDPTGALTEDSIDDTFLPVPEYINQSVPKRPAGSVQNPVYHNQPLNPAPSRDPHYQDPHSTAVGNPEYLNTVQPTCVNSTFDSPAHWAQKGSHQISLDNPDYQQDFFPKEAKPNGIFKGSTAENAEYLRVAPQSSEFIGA
In short: as §1

[1] = IC50 L858R/T790M/C797S (nM), 100 μM ATP
[2] = Km ATP, read-out: IC50 L858R/T790M/C797S (nM) Km ATP
[3] = IC50 Del19/C797S (nM), 100 μM ATP
[4] = Km ATP, read-out: IC50 Del19/C797S (nM) Km ATP
[5] = Km ATP, read-out: IC50 WT (nM) Km ATP
[6] = IC50 Del19/T790M/C797S (nM), 100 μM ATP
[7] = Km ATP, read-out: IC50 Del19/T790M/C797S (nM) Km ATP
[8] = IC50 L858R/C797S (nM), 100 μM ATP
[9] = Km ATP, read-out: IC50 L858R/C797S (nM) Km ATP

EGFR L858R/T790M/C797S, sequence (P00533 25-1210 T790M/C797S/L858R): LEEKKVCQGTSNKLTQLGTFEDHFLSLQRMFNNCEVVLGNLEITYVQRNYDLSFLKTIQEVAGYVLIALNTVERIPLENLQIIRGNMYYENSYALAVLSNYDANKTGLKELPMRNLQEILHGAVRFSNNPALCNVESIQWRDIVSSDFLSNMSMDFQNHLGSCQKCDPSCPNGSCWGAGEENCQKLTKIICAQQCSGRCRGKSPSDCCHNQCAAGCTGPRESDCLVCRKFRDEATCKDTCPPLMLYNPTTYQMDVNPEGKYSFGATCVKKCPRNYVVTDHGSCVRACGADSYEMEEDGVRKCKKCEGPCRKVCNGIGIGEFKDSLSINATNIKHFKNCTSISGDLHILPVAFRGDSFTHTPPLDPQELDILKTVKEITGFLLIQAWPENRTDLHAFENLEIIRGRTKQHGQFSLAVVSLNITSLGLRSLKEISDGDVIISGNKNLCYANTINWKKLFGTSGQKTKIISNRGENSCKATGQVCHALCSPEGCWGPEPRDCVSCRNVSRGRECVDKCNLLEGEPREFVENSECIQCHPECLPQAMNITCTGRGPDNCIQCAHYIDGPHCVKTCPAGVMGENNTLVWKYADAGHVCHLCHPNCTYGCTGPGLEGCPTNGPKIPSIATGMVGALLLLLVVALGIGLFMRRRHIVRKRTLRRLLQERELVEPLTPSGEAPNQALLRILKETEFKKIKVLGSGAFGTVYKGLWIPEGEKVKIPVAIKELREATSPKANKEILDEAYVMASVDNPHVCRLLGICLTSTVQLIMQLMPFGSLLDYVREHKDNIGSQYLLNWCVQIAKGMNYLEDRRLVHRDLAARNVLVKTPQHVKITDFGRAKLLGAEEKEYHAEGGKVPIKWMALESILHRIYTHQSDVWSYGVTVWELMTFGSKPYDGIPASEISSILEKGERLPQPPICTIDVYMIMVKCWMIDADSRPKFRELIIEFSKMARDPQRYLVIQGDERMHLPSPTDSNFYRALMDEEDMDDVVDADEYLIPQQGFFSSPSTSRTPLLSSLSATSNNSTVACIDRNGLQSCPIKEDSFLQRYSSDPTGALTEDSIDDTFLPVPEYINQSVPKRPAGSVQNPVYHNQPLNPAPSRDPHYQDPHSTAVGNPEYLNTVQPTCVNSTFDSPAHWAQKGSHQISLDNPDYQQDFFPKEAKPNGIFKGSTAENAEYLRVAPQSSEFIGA

Row | SMILES | IC50 (EGFR L858R/T790M/C797S; [1]) | IC50 (EGFR L858R/T790M/C797S; [2]) | IC50 (EGFR Del19/C797S; [3]) | IC50 (EGFR Del19/C797S; [4]) | IC50 (EGFR wildtype (WT); IC50 WT (nM), 100 μM ATP) | IC50 (EGFR wildtype (WT); [5]) | IC50 (EGFR Del19/T790M/C797S; [6]) | IC50 (EGFR Del19/T790M/C797S; [7]) | IC50 (EGFR L858R/C797S; [8]) | IC50 (EGFR L858R/C797S; [9])
1 | Cn1cc(C#Cc2cnc(Nc3ccnc(-c4cnn(S(=O)(=O)C5CC5)c4)n3)cc2N[C@H]2CCC[C@@H](O)C2)cn1 [Example 75, (1R,3S)-3-((2-((2-(1-(Cyclopropylsulfonyl)-1H-pyrazol-4-yl)pyrimidin-4-yl)amino)-5-((1-methyl-1H-pyrazol-4-yl)ethynyl)pyridin-4-yl)amino)cyclohexan-1-ol] | 1.8 nM | 0.8 nM | 5.7 nM | 3.8 nM | > 10000 nM | 45.6 nM | 1.6 nM | 1.8 nM | 104 nM | 2.6 nM
2 | Cn1cc(C#Cc2cnc(Nc3ccnc(-c4cnn(S(=O)(=O)C5CC5)c4)n3)cc2N[C@@H]2CCC[C@@H](O)C2)cn1 [Example 76, (1R,3R)-3-((2-((2-(1-(Cyclopropylsulfonyl)-1H-pyrazol-4-yl)pyrimidin-4-yl)amino)-5-((1-methyl-1H-pyrazol-4-yl)ethynyl)pyridin-4-yl)amino)cyclohexan-1-ol] | 8.8 nM | 2.2 nM | 80.7 nM | 51.9 nM | > 10000 nM | 667 nM | 4 nM | 3.7 nM | 2780 nM | 22.1 nM
3 | Cn1cc(C#Cc2cnc(Nc3ccnc(-c4cnn(S(=O)(=O)C5CC5)c4)n3)cc2N2CCCC(O)CC2)cn1 (stereo not shown) [Example 77, 1-(2-((2-(1-(Cyclopropylsulfonyl)-1H-pyrazol-4-yl)pyrimidin-4-yl)amino)-5-((1-methyl-1H-pyrazol-4-yl)ethynyl)pyridin-4-yl)azepan-4-ol] | 3.6 nM | 0.5 nM | 6.3 nM | 5 nM | > 10000 nM | 97 nM | 0.6 nM | 0.9 nM | 357 nM | 14.1 nM
4 | Cn1cc(C#Cc2cnc(Nc3ccnc(-c4cnn(S(=O)(=O)C5CC5)c4)n3)cc2N2CCCC(CO)CC2)cn1 (stereo not shown) [Example 78, (1-(2-((2-(1-(Cyclopropylsulfonyl)-1H-pyrazol-4-yl)pyrimidin-4-yl)amino)-5-((1-methyl-1H-pyrazol-4-yl)ethynyl)pyridin-4-yl)azepan-4-yl)methanol] | 5.9 nM | 0.7 nM | 12.4 nM | 10.4 nM | > 10000 nM | 163 nM | 1.3 nM | 1.6 nM | 563 nM | 22.1 nM
5 | Cn1cc(C#Cc2cnc(Nc3ccnc(-c4cnn(S(=O)(=O)C5CC5)c4)n3)cc2N2CCC3(CCNC3=O)CC2)cn1 [Example 79, 8-(2-((2-(1-(Cyclopropylsulfonyl)-1H-pyrazol-4-yl)pyrimidin-4-yl)amino)-5-((1-methyl-1H-pyrazol-4-yl)ethynyl)pyridin-4-yl)-2,8-diazaspiro[4.5]decan-1-one] | 0.8 nM | 0.1 nM | 1.3 nM | 1.3 nM | 7190 nM | 6.1 nM | 0.3 nM | 0.2 nM | 17.8 nM | 1.2 nM
6 | Cn1cc(C#Cc2cnc(Nc3ccnc(-c4cnn(S(=O)(=O)C5CC5)c4)n3)cc2N[C@H]2CC[C@@H](NCCF)CC2)cn1 [Example 80, N^2-(2-(1-(Cyclopropylsulfonyl)-1H-pyrazol-4-yl)pyrimidin-4-yl)-N^4-((1s, 4s)-4-((2-fluoroethyl)amino)cyclohexyl)-5-((1-methyl-1H-pyrazol-4-yl)ethynyl)pyridine-2,4-diamine] | 1.9 nM | 0.5 nM | 16.1 nM | 12.3 nM | > 10000 nM | 80.1 nM | 0.6 nM | 0.5 nM | 137 nM | 16.4 nM
7 | Cn1cc(C#Cc2cnc(Nc3ccnc(-c4cnn(S(=O)(=O)C5CC5)c4)n3)cc2N[C@H]2CC[C@@](C)(O)CC2)cn1 [Example 81, (1s,4s)-4-((2-((2-(1-(Cyclopropylsulfonyl)-1H-pyrazol-4-yl)pyrimidin-4-yl)amino)-5-((1-methyl-1H-pyrazol-4-yl)ethynyl)pyridin-4-yl)amino)-1-methylcyclohexan-1-ol] | 0.4 nM | 0.2 nM | 5.8 nM | 7.7 nM | > 10000 nM | 61.6 nM | 0.3 nM | 0.3 nM | 79.1 nM | 5.3 nM
8 | O=S(=O)(C1CC1)n1cc(-c2nccc(Nc3cc(N4CCC(O)CC4)c(C#Cc4cnn(C5CC5(F)F)c4)cn3)n2)cn1 (stereo not shown) [Example 82, 1-(2-((2-(1-(Cyclopropylsulfonyl)-1H-pyrazol-4-yl)pyrimidin-4-yl)amino)-5-((1-(2,2-difluorocyclopropyl)-1H-pyrazol-4-yl)ethynyl)pyridin-4-yl)piperidin-4-ol] | 1.8 nM |  | 3.5 nM |  | > 10000 nM |  | 0.6 nM |  | 22.8 nM | 
9 | O=S(=O)(C1CC1)n1cc(-c2nccc(Nc3cc(N4CCC(CO)CC4)c(C#Cc4cnn(C5CC5(F)F)c4)cn3)n2)cn1 (stereo not shown) [Example 83, (1-(2-((2-(1-(Cyclopropylsulfonyl)-1H-pyrazol-4-yl)pyrimidin-4-yl)amino)-5-((1-(2,2-difluorocyclopropyl)-1H-pyrazol-4-yl)ethynyl)pyridin-4-yl)piperidin-4-yl)methanol] | 2.5 nM |  | 4 nM |  | > 10000 nM |  | 1.3 nM |  | 24.4 nM | 
10 | O=S(=O)(C1CC1)n1cc(-c2nccc(Nc3cc(N4CCC(CCO)CC4)c(C#Cc4cnn(C5CC5(F)F)c4)cn3)n2)cn1 (stereo not shown) [Example 84, 2-(1-(2-((2-(1-(Cyclopropylsulfonyl)-1H-pyrazol-4-yl)pyrimidin-4-yl)amino)-5-((1-(2,2-difluorocyclopropyl)-1H-pyrazol-4-yl)ethynyl)pyridin-4-yl)piperidin-4-yl)ethan-1-ol] | 6.7 nM |  | 7.2 nM |  | > 10000 nM |  | 3.3 nM |  | 33 nM | 
11 | O=S(=O)(C1CC1)n1cc(-c2nccc(Nc3cc(NC4CCC(O)CC4)c(C#Cc4cnn(C5CC5(F)F)c4)cn3)n2)cn1 (stereo not shown) [Example 85, (1s,4s)-4-((2-((2-(1-(Cyclopropylsulfonyl)-1H-pyrazol-4-yl)pyrimidin-4-yl)amino)-5-((1-(2,2-difluorocyclopropyl)-1H-pyrazol-4-yl)ethynyl)pyridin-4-yl)amino)cyclohexan-1-ol] | 3.5 nM | 1 nM | 7 nM | 3.5 nM | > 10000 nM | 114 nM | 1.8 nM | 1.8 nM | 50.8 nM | 3.1 nM
12 | Cn1ncc(C#Cc2cnc(Nc3ccnc(-c4cnn(S(=O)(=O)C5CC5)c4)n3)cc2N2CCC(O)CC2)c1C1CC1 [Example 86, 1-(5-((5-Cyclopropyl-1-methyl-1H-pyrazol-4-yl)ethynyl)-2-((2-(1-(cyclopropylsulfonyl)-1H-pyrazol-4-yl)pyrimidin-4-yl)amino)pyridin-4-yl)piperidin-4-ol] | 6.4 nM |  | 23.9 nM |  | > 10000 nM |  | 1.4 nM |  | 73.9 nM | 
